From the supplement of paper PMC8967900

Key:
Experiment in all cases: selective drug sensitivity score (sDSS, relative to normal bone marrow) (sDSS (score)); higher = more potent and effective on the cell line relative to normal bone marrow cells
Conditions in all cases: 72 h
COG-LL-402h = test system: COG-LL-402h
NALM-6 = test system: NALM-6
ALL-SIL = test system: ALL-SIL
NALL-1 = test system: NALL-1
COG-LL-394h = test system: COG-LL-394h
MOLT-14 = test system: MOLT-14
PF-382 = test system: PF-382
P30-OHKUBO = test system: P30-OHKUBO
MOLT-4 = test system: MOLT-4
MHH-CALL-2 = test system: MHH-CALL-2
MOLT-16 = test system: MOLT-16
ALL-PO = test system: ALL-PO
MHH-CALL-4 = test system: MHH-CALL-4
MN-60 = test system: MN-60
JURKAT = test system: JURKAT
RCH-ACV = test system: RCH-ACV
COG-LL-355h = test system: COG-LL-355h
KOPN-8 = test system: KOPN-8
RPMI-8402 = test system: RPMI-8402
NALM-16 = test system: NALM-16
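Also: ALL cell lines in 384-well plates, five doses spanning 10,000-fold, each plate scaled between vehicle and 100 µmol/L benzalkonium chloride controls, sDSS an adapted area-under-curve metric.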

| Structure (SMILES) | selective drug sensitivity score (COG-LL-402h) | selective drug sensitivity score (NALM-6) | selective drug sensitivity score (ALL-SIL) | selective drug sensitivity score (NALL-1) | selective drug sensitivity score (COG-LL-394h) | selective drug sensitivity score (MOLT-14) | selective drug sensitivity score (PF-382) | selective drug sensitivity score (P30-OHKUBO) | selective drug sensitivity score (MOLT-4) | selective drug sensitivity score (MHH-CALL-2) | selective drug sensitivity score (MOLT-16) | selective drug sensitivity score (ALL-PO) | selective drug sensitivity score (MHH-CALL-4) | selective drug sensitivity score (MN-60) | selective drug sensitivity score (JURKAT) | selective drug sensitivity score (RCH-ACV) | selective drug sensitivity score (COG-LL-355h) | selective drug sensitivity score (KOPN-8) | selective drug sensitivity score (RPMI-8402) | selective drug sensitivity score (NALM-16) |
| --- | --- | --- | --- | --- | --- | --- | --- | --- | --- | --- | --- | --- | --- | --- | --- | --- | --- | --- | --- | --- |
| CC[C@H](CC#N)OC(=O)N[C@@H](C)c1cccc(NC(=O)Nc2ccc(-c3cnco3)c(OC)c2)c1 [AVN944] (top concentration 10000 nM) | 9.64 | 15.5 | 6.64 | 2.64 | -2.06 | 15.9 | 10.2 | 13.8 | 15.6 | 9.54 | 22.3 | 5.94 | 2.44 | 3.64 | 13.7 | 22 | -2.16 | 19.5 | 11.9 | 0.24 |
| CN(Cc1cnc2nc(N)nc(N)c2n1)c1ccc(C(=O)N[C@@H](CCC(=O)O)C(=O)O)cc1 [Methotrexate] (top concentration 5000 nM) | 2.38 | 16.4 | 15 | 12.7 | 1.68 | 10.8 | 11.7 | -0.42 | 11.2 | 13.8 | 15.7 | -0.12 | 9.68 | 14.6 | 13.4 | 9.48 | -0.42 | -0.12 | 20.2 | 6.68 |
| CC[C@@]1(O)C(=O)OCc2c1cc1n(c2=O)Cc2cc3c(CN(C)C)c(O)ccc3nc2-1 [Topotecan] (top concentration 10000 nM) | 17.7 | 17.1 | 24.9 | 20.4 | 11.4 | 25.9 | 18.2 | 18.9 | 19.9 | 26.6 | 21.5 | 17.9 | 16.5 | 4.28 | 15.2 | 19.5 | 10.9 | 23.4 | 19.4 | 7.18 |
| COc1ccc(-c2ccc3c(N4CCOC[C@@H]4C)nc(N4CCOC[C@@H]4C)nc3n2)cc1CO [AZD8055] (top concentration 10000 nM) | 9.88 | 3.68 | 6.78 | -3.22 | -2.42 | 1.18 | 9.18 | 16.6 | 7.08 | 6.08 | 12.5 | 10.6 | 2.88 | 7.98 | 4.88 | 27.4 | 6.38 | 22.6 | 7.78 | 1.78 |
| Cc1sc2c(c1C)C(c1ccc(Cl)cc1)=N[C@@H](CC(=O)NCCCCNC(=O)COc1cccc3c1C(=O)N(C1CCC(=O)NC1=O)C3=O)c1nnc(C)n1-2 (stereo not given in full) [dBET1] (top concentration 10000 nM) | 2.22 | -4.78 | -7.08 | -11.8 | -2.78 | -1.48 | -8.28 | 2.82 | -9.28 | 4.92 | 1.42 | -5.58 | 5.42 | -8.08 | -11.9 | 0.22 | 6.22 | 7.82 | -6.68 | -4.48 |
| CN1CCN(C2CCC(n3cc(-c4ccc(Oc5ccccc5)cc4)c4c(N)ncnc43)CC2)CC1 (stereo not given) (top concentration 10000 nM) | 18.2 | 3.42 | 16.3 | 5.52 | 4.42 | 3.42 | 7.12 | 8.52 | 0.82 | 3.12 | 0.52 | 9.52 | 0.52 | 1.32 | 0.62 | 22.7 | -0.08 | 5.02 | 3.52 | 0.72 |
| O=c1[nH]c(=O)n([C@H]2C[C@H](O)[C@@H](CO)O2)cc1C(F)(F)F [Trifluridine] (top concentration 10000 nM) | 8.26 | 15 | 13.7 | 9.76 | 2.66 | 15.4 | 4.16 | 11.9 | 7.36 | 9.96 | 15.1 | 20 | 2.26 | 3.66 | 9.66 | 15.2 | 0.06 | 17.4 | 15.5 | 4.06 |
| COc1cccc2c1C(=O)c1c(O)c3c(c(O)c1C2=O)C[C@@](O)(C(=O)CO)C[C@@H]3O[C@H]1C[C@H](N)[C@@H](O)[C@H](C)O1 [Epirubicin] (top concentration 1000 nM) | 14.9 | 3.82 | 0.42 | -5.28 | 6.82 | 11.6 | 2.12 | 6.92 | 9.92 | 6.12 | 15.4 | -1.78 | 6.92 | -0.98 | 1.02 | 12.9 | 3.22 | 9.42 | 6.62 | -0.28 |
| CON(C)C(=O)N1N=C(c2cc(F)ccc2F)S[C@@]1(CCCN)c1ccccc1 [Filanesib] (top concentration 1000 nM) | 17.7 | 21 | 16.6 | 10.3 | 8.7 | 22.9 | 12.5 | 9.9 | 9.3 | 16.4 | 21.2 | 6.7 | 7.4 | 7.1 | 17.7 | 16.3 | 1.7 | 9.8 | 18.9 | 16.6 |
| CO[C@H]1C[C@@H]2CC[C@@H](C)[C@@](O)(O2)C(=O)C(=O)N2CCCC[C@H]2C(=O)O[C@H]([C@H](C)C[C@@H]2CC[C@@H](OCCO)[C@H](OC)C2)CC(=O)[C@H](C)/C=C(\C)[C@@H](O)[C@@H](OC)C(=O)[C@H](C)C[C@H](C)/C=C/C=C/C=C/1C [Everolimus] (top concentration 100 nM) | 1 | -3.8 | -0.2 | -5.3 | -4.9 | -2.2 | 1.9 | 2 | -1.2 | 4.2 | 8.1 | 8.9 | -1.5 | 0.5 | -1 | 16 | 1.5 | 19.6 | -0.7 | -2 |
